The values below come from patent US20070275962A1, “Heterobicyclic Compounds as Pharmaceutically Active Agents” (GPC BIOTECH AG, priority 2003, published 2007).

Counter-ions that a name gives are not always drawn. Some results are limits rather than exact numbers.

Series [1] deals with T1, mycobacterial protein kinase G (PknG) (Mycobacterium tuberculosis, UniProt P9WI73).
T1 construct: GST; made in house; host or cells: E. coli BL21
The experiment in a line: biochemical. Particulars: read-out: Inhibition of PknG (IC50, [μM]).

A further series addresses CDK2/CycA (Homo sapiens, UniProt P24941). As to the kind of experiment: General kinase assay: CDK2/CycA. The series is classed as biochemical. The conditions noted are these: concentration 10 μM; read-out: Inhibitory effect on Target CDK2/CycA. On the procedure: (§1) General Assay Protocol for all Kinases [[[…]]] [[[…]]] Reaction Buffer: Final Assay Concentrations: [[[…]]] Pipetting Sequence: • 1) Add 8 μl 50 μM MBP in Reaction Buffer to each well of Assay Plate • 2) Add 10 μl 500 mM EDTA in H2O to C- wells • 3) Add 8 μl 62.5 μCi/ml Adenosine 5'-[γ-^33P]triphosphate+5 μM ATP in Reaction Buffer to each well • 4) Add 8 μl 5 fold concentrated inhibitor in 5% DMSO in Reaction Buffer to each well except to C- and C+ wells • 5) Add 8 μl 5% DMSO in Reaction Buffer to C- and C+ wells • 6) Add 8 μl 5 fold concentrated kinase in Reaction Buffer to each well • 7) Incubate 1 hr at room temperature • 8) Add 10 μl 50 mM EDTA in H2O to each well except to C- wells • 9) Prepare MAPH plates by adding 200 μl 0.75% H3PO4 to each well • 10) Exhaust 0.75% H3PO4 using Millipore vacuum station • 11) Add 60 μl 0.75% H3PO4 to each well of MAPH Filter Plate • 12) Transfer 30 μl sample per well from Assay Plate to corresponding well of MAPH Filter Plate • 13) Incubate 30 min at room temperature • 14) Wash each well of MAPH Filter Plates 3× with 200 μl 0.75% H3PO4 using Millipore vacuum station • 15) Add 20 μl Szintilation Liquid to each well of MAPH Filter Plate • 16) Seal MAPH Filter Plate • 17) Store MAPH Filter Plate 30 min in darkness • 18) Quantify radioactivity

For the next series, the target named is T2, CK1-alpha GST (Homo sapiens, UniProt P48729).
T2 construct: GST
T2 sequence (P48729 whole entry): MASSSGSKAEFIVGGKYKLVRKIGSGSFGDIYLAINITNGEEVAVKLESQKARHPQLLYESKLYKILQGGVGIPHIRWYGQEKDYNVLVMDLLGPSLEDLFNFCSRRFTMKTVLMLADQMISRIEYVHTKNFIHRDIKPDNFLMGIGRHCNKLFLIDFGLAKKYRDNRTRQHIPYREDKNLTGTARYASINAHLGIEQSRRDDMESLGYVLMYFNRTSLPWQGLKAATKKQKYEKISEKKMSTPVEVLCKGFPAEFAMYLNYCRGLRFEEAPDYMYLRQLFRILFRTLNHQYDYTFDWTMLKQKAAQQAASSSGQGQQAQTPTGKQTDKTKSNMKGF
As to the kind of experiment: General kinase assay: CK1-alpha. The series is classed as biochemical. The conditions noted are these: concentration 10 μM; read-out: Inhibitory effect on Target CK1-alpha GST. On the procedure: as §1

Another series deals with T3, EGFR GST-HIS (Homo sapiens, UniProt P00533).
T3 construct: GST; His
T3 sequence (P00533 25-1210): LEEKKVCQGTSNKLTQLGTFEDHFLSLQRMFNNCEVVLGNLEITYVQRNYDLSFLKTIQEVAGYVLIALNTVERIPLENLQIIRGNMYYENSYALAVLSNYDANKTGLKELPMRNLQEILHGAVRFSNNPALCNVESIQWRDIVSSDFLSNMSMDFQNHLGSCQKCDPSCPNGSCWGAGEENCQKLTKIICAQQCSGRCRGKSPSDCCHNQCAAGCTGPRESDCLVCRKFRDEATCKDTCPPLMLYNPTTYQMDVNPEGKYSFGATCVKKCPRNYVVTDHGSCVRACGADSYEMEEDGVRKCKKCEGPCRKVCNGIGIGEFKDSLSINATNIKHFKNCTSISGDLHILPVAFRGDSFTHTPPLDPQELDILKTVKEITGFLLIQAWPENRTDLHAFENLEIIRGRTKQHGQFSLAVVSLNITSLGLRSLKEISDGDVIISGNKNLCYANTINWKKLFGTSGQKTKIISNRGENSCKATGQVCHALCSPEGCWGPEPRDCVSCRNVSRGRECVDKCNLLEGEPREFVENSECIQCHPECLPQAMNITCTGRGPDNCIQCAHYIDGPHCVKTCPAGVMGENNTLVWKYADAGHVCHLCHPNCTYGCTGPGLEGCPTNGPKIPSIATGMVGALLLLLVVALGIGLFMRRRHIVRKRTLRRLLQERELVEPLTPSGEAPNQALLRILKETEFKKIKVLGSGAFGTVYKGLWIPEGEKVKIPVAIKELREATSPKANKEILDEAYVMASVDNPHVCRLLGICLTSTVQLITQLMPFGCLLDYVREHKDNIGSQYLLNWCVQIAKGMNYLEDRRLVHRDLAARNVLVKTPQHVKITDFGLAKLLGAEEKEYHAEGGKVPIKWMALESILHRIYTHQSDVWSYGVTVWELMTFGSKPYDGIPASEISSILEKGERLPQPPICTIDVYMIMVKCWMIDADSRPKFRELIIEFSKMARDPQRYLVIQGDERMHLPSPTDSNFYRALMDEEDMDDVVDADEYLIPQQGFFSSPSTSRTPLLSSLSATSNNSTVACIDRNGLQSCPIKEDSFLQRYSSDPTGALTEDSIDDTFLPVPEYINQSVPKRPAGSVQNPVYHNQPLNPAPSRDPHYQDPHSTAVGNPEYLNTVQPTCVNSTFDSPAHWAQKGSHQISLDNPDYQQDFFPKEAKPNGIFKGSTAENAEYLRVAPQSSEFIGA
The experiment in a line: General kinase assay: EGFR. The series is classed as biochemical. Particulars: concentration 10 μM; read-out: Inhibitory effect on Target EGFR GST-HIS. On the procedure: as §1

For the next series, the target named is T4, GSK-3beta HIS (Homo sapiens, UniProt P49841).
T4 construct: His
T4 sequence (P49841 whole entry): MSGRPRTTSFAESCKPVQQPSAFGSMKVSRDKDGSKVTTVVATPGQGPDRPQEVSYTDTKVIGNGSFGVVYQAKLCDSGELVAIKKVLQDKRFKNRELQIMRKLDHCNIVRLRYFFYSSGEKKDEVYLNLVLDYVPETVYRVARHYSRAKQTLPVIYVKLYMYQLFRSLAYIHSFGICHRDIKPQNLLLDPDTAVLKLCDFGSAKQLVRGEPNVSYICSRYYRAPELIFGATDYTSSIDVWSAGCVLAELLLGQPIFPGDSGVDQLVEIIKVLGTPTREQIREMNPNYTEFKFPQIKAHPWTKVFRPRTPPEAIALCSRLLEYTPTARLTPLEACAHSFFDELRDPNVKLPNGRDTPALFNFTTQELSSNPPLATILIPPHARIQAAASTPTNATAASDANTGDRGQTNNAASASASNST
The experiment in a line: General kinase assay: GSK-3beta. The series is classed as biochemical. The conditions noted are these: concentration 10 μM; read-out: Inhibitory effect on Target GSK-3beta HIS. On the procedure: as §1

The next series deals with T5, RICK-STREP 1 (Homo sapiens, UniProt O43353).
T5 construct: Strep
T5 sequence (O43353 whole entry): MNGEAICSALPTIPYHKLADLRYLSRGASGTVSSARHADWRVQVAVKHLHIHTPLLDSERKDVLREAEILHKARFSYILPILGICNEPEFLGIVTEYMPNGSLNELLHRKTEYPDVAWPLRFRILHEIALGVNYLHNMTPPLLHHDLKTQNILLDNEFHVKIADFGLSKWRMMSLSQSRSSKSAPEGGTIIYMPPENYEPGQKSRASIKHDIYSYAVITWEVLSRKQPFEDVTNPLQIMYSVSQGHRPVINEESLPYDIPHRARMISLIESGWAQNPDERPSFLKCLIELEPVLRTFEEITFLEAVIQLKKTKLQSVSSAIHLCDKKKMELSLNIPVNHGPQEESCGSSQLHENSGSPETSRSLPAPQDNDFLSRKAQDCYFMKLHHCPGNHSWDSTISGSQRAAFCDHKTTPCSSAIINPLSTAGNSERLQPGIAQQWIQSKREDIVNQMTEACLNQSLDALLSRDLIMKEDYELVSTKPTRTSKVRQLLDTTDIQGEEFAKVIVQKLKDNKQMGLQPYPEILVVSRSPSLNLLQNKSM
The experiment in a line: General kinase assay: RICK. The conditions noted are these: concentration 10 μM; read-out: Inhibitory effect on Target RICK-STREP 1. The format is biochemical. On the procedure: as §1

For a further series, the target named is T6, SRPK1 GST (Homo sapiens, UniProt Q96SB4).
T6 construct: GST
T6 sequence (Q96SB4 whole entry): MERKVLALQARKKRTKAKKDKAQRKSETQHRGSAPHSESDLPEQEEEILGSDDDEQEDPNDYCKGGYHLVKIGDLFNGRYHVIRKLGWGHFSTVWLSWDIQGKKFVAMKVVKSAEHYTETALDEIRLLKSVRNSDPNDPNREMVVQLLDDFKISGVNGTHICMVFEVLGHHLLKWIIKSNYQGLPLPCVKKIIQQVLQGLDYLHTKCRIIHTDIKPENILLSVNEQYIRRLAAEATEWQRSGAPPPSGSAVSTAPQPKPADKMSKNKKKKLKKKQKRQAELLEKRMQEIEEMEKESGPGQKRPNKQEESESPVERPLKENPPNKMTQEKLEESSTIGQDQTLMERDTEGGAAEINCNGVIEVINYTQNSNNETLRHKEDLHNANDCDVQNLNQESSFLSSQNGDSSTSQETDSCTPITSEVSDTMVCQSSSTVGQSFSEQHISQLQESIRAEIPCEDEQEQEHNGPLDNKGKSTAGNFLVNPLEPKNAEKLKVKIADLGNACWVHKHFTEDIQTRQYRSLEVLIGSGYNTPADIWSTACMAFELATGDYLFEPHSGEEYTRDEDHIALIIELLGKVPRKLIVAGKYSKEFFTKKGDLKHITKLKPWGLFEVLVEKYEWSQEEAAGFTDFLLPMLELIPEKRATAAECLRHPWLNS
The experiment in a line: General kinase assay: SRPK1. The conditions noted are these: concentration 10 μM; read-out: Inhibitory effect on Target SRPK1 GST. The series is classed as biochemical. On the procedure:
as §1

The next series concerns the target T7, cMet GST-HIS (Homo sapiens, UniProt P08581).
T7 construct: GST; His
The experiment in a line: General kinase assay: cMet. The format is biochemical. The conditions noted are these: concentration 10 μM; read-out: Inhibitory effect on Target cMet GST-HIS. On the procedure:
as §1

The next series addresses T8, c-Src HIS (Homo sapiens, UniProt P12931).
T8 construct: His
As to the kind of experiment: General kinase assay: c-Src. The series is classed as biochemical. The conditions noted are these: concentration 10 μM; read-out: Inhibitory effect on Target c-Src HIS. On the procedure:
as §1

A further series concerns the target T9, Kit human GST (Homo sapiens, UniProt P10721).
T9 construct: GST
As to the kind of experiment: General kinase assay: Kit. The series is classed as biochemical. Particulars: concentration 10 μM; read-out: Inhibitory effect on Target Kit human GST. On the procedure:
as §1

A further series has as its target T10, PDGFRbeta GST (Homo sapiens, UniProt P09619).
T10 construct: GST
As to the kind of experiment: General kinase assay: PDGFRbeta. The series is classed as biochemical. Particulars: concentration 10 μM; read-out: Inhibitory effect on Target PDGFRbeta GST. On the procedure:
as §1

T1 sequence (P9WI73 whole entry): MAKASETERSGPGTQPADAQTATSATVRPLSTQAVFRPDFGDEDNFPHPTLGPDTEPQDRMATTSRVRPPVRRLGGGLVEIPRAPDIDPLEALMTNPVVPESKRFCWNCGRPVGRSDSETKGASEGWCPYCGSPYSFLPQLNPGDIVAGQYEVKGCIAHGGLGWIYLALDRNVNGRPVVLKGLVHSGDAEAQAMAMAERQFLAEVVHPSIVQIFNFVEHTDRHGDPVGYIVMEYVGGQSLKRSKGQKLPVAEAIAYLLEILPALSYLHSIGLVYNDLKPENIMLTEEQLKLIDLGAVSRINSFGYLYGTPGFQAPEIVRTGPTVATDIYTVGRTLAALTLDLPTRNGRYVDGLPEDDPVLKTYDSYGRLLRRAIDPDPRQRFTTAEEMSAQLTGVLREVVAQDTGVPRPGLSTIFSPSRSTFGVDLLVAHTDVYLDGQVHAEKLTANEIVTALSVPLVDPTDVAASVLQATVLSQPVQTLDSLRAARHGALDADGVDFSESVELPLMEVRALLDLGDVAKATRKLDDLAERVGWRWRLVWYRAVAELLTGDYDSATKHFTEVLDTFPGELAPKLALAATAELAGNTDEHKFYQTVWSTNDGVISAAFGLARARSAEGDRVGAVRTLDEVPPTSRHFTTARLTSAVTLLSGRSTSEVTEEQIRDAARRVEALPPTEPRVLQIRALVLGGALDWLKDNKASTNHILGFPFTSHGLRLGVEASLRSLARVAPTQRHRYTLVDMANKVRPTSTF
T10 sequence (P09619 33-1106): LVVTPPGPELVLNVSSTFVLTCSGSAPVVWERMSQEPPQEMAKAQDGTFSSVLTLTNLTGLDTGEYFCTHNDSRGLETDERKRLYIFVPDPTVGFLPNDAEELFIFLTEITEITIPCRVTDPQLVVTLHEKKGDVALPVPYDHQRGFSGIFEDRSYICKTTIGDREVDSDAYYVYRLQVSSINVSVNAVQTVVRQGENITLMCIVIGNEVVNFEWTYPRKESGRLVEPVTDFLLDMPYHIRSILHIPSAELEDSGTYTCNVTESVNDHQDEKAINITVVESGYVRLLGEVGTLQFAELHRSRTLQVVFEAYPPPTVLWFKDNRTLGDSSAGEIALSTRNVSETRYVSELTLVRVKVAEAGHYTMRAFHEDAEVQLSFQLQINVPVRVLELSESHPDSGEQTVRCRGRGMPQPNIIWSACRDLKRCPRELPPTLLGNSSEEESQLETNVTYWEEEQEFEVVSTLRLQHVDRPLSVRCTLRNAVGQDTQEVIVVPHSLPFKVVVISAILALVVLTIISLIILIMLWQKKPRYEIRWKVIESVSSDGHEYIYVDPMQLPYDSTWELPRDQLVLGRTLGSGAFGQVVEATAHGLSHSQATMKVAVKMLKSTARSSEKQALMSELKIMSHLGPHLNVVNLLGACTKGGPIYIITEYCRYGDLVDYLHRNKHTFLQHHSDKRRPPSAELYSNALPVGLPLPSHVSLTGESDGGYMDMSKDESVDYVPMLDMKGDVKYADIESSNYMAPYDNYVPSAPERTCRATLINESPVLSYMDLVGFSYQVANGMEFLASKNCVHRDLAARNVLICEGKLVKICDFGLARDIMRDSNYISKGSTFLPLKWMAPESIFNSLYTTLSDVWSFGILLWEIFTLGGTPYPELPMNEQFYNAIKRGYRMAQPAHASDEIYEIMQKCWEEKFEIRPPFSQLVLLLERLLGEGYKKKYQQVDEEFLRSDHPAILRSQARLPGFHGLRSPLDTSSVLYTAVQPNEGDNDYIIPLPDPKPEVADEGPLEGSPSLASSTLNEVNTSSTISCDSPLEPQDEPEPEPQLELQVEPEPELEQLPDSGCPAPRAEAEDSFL

Take `O=C(Nc1sc2c(c1S(=O)(=O)O)CCCC2)C1CC1` [Compound D216, 2-(Cyclopropanecarbonyl-amino)-4,5,6,7-tetrahydro-benzo[b]thiophene-3-sulfonic acid]: the melting point (usually the temperature of the solid-liquid transition) was 225 to 230 °C (dec.).

For the compound `NS(=O)(=O)c1c(NC(=O)C2CC2)sc2c1CCCC2` [Compound D86, Cyclopropanecarboxylic acid (3-sulfamoyl-4,5,6,7-tetrahydro-benzo[b]thiophen-2-yl)-amide], the melting point is 235 to 238 °C (dec.).

With `NC(=O)c1c(NC(=O)C2CC2)sc2c1CCC(Br)(Br)C2=O` [Compound D67, 6,6-Dibromo-2-(cyclopropanecarbonyl-amino)-7-oxo-4,5,6,7-tetrahydro-benzo[b]thiophene-3-carboxylic acid amide], the IC50 (commonly the concentration that inhibits the measured activity by half) in [1] lay within 0.1 to 1 µM. The inhibition at 10 µM on CDK2/CycA, on CK1-alpha GST, on EGFR GST-HIS, at GSK-3beta HIS, on RICK-STREP 1 and on SRPK1 GST was over 50% throughout. The inhibition at 10 µM on cMet GST-HIS is over 50%.

Turning to `NC(=O)c1c(NC(=O)C2CC2)sc2c(Cl)c(OCCO)c(Cl)cc12` [Compound A49, 5,7-Dichloro-2-(cyclopropanecarbonyl-amino)-6-(2-hydroxyethoxy)-benzo[b]thiophene-3-carboxylic acid amide], the melting point lay within 250 to 254 °C.

Turning to `NC(=O)c1c(NC(=O)Nc2ccc(F)cc2)sc2c1CCC(=O)C2` [Compound D121, 2-[3-(4-Fluoro-phenyl)-ureido]-6-oxo-4,5,6,7-tetrahydro-benzo[b]thiophene-3-carboxylic acid amide], the inhibition at 10 µM on CDK2/CycA, on CK1-alpha GST, on EGFR GST-HIS, on GSK-3beta HIS, at RICK-STREP 1 and on SRPK1 GST was over 50% each time. For the same compound, at c-Src HIS, the inhibition at 10 µM is over 50%.

Take `NN=C1CCc2c(sc(NC(=O)C3CC3)c2C(N)=O)C1` [Compound D115, 2-(Cyclopropanecarbonyl-amino)-6-hydrazono-4,5,6,7-tetrahydro-benzo[b]thiophene-3-carboxylic acid amide]: the IC50 in [1] lay within 0.1 to 1 µM. Also, the inhibition at 10 µM at CDK2/CycA, on CK1-alpha GST, at EGFR GST-HIS, at GSK-3beta HIS, on Kit human GST and on PDGFRbeta GST was over 50% in each case. Besides, the inhibition at 10 µM at RICK-STREP 1 is over 50%.

`CCOC(=O)Nc1sc2c(Cl)c(O)c(Cl)cc2c1C(N)=O` [Compound A120, (3-Carbamoyl-5,7-dichloro-6-hydroxy-benzo[b]thiophen-2-yl)-carbamic acid ethyl ester] showed a melting point of 235 to 240 °C.

In turn, `NC(=O)c1c(NC(=O)Nc2ccccc2)sc2c1CCC1(C2)OCCO1` (as salt: HCl) [Compound D199, 2-[(Anilinocarbonyl)amino]-4,7-dihydro-5H-spiro[1-benzothiophene-6,2′-[1,3]dioxolane]-3-carboxamide] gave a melting point of 212 to 213 °C.

Consider `NC(=O)c1c(NC(=O)Nc2ccc(F)cc2)sc2c1CCSC2` [Compound C45, 2-[3-(4-Fluoro-phenyl)-ureido]-4,7-dihydro-5H-thieno[2,3-c]thiopyran-3-carboxylic acid amide], for which the IC50 in series [1] is 0.1 to 1 µM. Also, the inhibition at 10 µM on CDK2/CycA, on GSK-3beta HIS, on PDGFRbeta GST, at RICK-STREP 1 and on SRPK1 GST was over 50% each time.
